Experimental data as given in patent US5530097A, “Human cancer inhibitory peptide amides” (Arizona Board of Regents acting on behalf of Arizona State …, priority 1994, dated 1996).

Key:
[1] = system: MX-1 Human Mammary Xenograft; assay: Experimental anticancer activity in murine in vivo systems (Tumor Regression); settings: MX-1 (Tumor Regression)
A498 = assay: NCI in vitro mini panel, human cancer cell line growth inhibition; assay type: cell-based; settings: Renal A498, 48 hrs
Experimental: (§1) ED50 (P388) and GI50 (HTCL) identify the drug dose which reduces the percent tumor/cell growth to 50%. There is no mathematical difference between ED50 and GI50, both of which are calculated using the same formula. The only difference is historical usage.
(§2) TGI, means "Total Growth Inhibition", and identifies the drug dose needed to yield zero percent growth, i.e. there are just as many cells at the end of the experiment as were present at the beginning. Whether just as many cells were killed as were produced (steady state), or no growth occurred (total inhibition) cannot be distinguished.
(§3) LC50, means "Lethal Concentration 50%", and identifies the drug concentration which reduces to one-half of the cells originally present at the beginning of the experiment.
(§4) Each drug is tested at five (5) doses: 100--10-1-0.1--0.01 μg/mL. Percent Growths are calculated for each dose. The two (or three) doses with growth values above, below, (or near to) 50% growth are used to calculate the ED50 /GI50 values using a linear regression computation. If no dose yields a growth value under 50%, the results are expressed as: ED50 >(highest dose). If no dose yields growth higher than 50% growth, then ED50 <(lowest dose). Similar calculations are performed for the TGI at 0% growth, and at -50% growth for the LC50.
(§5) At the start of each experiment, cells from the in vitro cell cultures are inoculated into the appropriate tubes or microtiter plates. One set of control tubes/plates is immediately counted to determine the number of cells at the start of the experiment. This is the "baseline count", or "Tzero reading". At the end of the experiment (48 hrs later), a second set of control tubes/plates is analyzed to determine the "Control Growth" value. The growth (or death) of cells relative to the initial quantity of cells is used to define the "Percent of Growth."
(§6) Similarly, the compounds disclosed herein have also been tested against an NCI in vitro mini panel. For each of six cell lines GI50, TGI, and LC50 amounts were calculated for each compound. Each compound was also tested against the PS-388 cell line and for this test an ED50 was calculated.
(§7) The protocols followed, for the NCI minipanel are, except for the number of cell lines, those established by M. R. Boyd Ph.D., and well known to those of ordinary skill in the art. The procedure followed for the test against PS-388 Leukemia is the same that was followed in the superseded NCI P-388 screening test, which is also well known to those having ordinary skill in the art.

KM20L2 = assay: as above; assay type: cell-based; settings: Colon KM20L2, 48 hrs
Experimental: as §1, §2, §3, §4, §5, §6, §7

NCI-H460 = assay: as above; assay type: cell-based; settings: Lung-NSC NCI-H460, 48 hrs
Experimental: as §1, §2, §3, §4, §5, §6, §7

OVCAR-3 = assay: as above; assay type: cell-based; settings: Ovarian OVCAR-3, 48 hrs
Experimental: as §1, §2, §3, §4, §5, §6, §7

SF-295 = assay: as above; assay type: cell-based; settings: CNS SF-295, 48 hrs
Experimental: as §1, §2, §3, §4, §5, §6, §7

SK-MEL-5 = assay: as above; assay type: cell-based; settings: Melanoma SK-MEL-5, 48 hrs
Experimental: as §1, §2, §3, §4, §5, §6, §7

PS-388 = PS-388 mouse leukemia cell line test; assay type: cell-based; settings: Mouse Leukemia PS-388
Experimental: as §1, §4, §5, §6, §7

| Substance | GI-50 (A498) [µg/mL] | LC-50 (A498) [µg/mL] | TGI (A498) [µg/mL] | GI-50 (KM20L2) [µg/mL] | LC-50 (KM20L2) [µg/mL] | TGI (KM20L2) [µg/mL] | GI-50 (NCI-H460) [µg/mL] | LC-50 (NCI-H460) [µg/mL] | TGI (NCI-H460) [µg/mL] | GI-50 (OVCAR-3) [µg/mL] | LC-50 (OVCAR-3) [µg/mL] | TGI (OVCAR-3) [µg/mL] | GI-50 (SF-295) [µg/mL] | LC-50 (SF-295) [µg/mL] | TGI (SF-295) [µg/mL] | GI-50 (SK-MEL-5) [µg/mL] | LC-50 (SK-MEL-5) [µg/mL] | TGI (SK-MEL-5) [µg/mL] | ED-50 (PS-388) [µg/mL] | other results |
| --- | --- | --- | --- | --- | --- | --- | --- | --- | --- | --- | --- | --- | --- | --- | --- | --- | --- | --- | --- | --- |
| Dolastatin 10 |  |  |  |  |  |  |  |  |  |  |  |  |  |  |  |  |  |  |  | T/C ([1]; 6.25 μg/kg): 69; T/C ([1]; 13 μg/kg): 61; T/C ([1]; 26 μg/kg): 50; T/C ([1]; 52 μg/kg): 14 |
| L-Dolavalyl-L-Leucyl-N-methyl-(3R,4S,5S)-Dolaisoleuinyl-(2R,3R,4S)-Dolaproinyl-N-2(4-chlorophenyl) ethylamide [10d] | 0.0059 | > 1 | 0.29 | 0.00011 | > 1 | 0.011 | 0.0024 | > 1 | 0.0097 | 0.00029 | > 1 | 0.012 | 0.0017 | > 1 | 0.1 | 0.00091 | > 1 | > 1 | 0.00586 |  |
| L-Dolavalyl-L-Leucyl-N-methyl-(3R,4S,5S)-Dolaisoleuinyl-(2R,3R,4S)-Dolaproinyl-L-Methionine N-2-chlorophenylamide [8a] | 0.0037 | > 0.01 | > 0.01 | 0.0018 | > 0.01 | > 0.01 | 0.0028 | > 0.01 | 0.0079 | 0.00047 | > 0.01 | 0.005 | 0.0034 | > 0.01 | > 0.01 | 0.042 | > 0.01 | > 0.01 | 0.00256 |  |
| L-Dolavalyl-L-Leucyl-N-methyl-(3R,4S,5S)-Dolaisoleuinyl-(2R,3R,4S)-Dolaproinyl-N-2(2-chlorophenyl) ethylamide [10b] | 0.00069 | > 0.01 | > 0.01 | 0.00031 | > 0.01 | 0.0013 | 0.00033 | > 0.01 | 0.0014 | 0.00031 | > 0.01 | 0.0012 | 0.00042 | > 0.01 | > 0.01 | 0.00043 | > 0.01 | > 0.01 | 0.000357 |  |
